In patent publication US6815425B1 (The United States of America as represented by the …, priority 1999, dated 2004):
Entries after “also recorded” stand apart in the source; their conditions may differ.

What was measured:
[1] = tested on: focal ischemia; details: rat; also when given 3 hours or 5 hours after start of recirculation (temporary model); cited from earlier work
[2] = tested on: volume of necrosis; details: administered 15 min prior or 30 min post TBI; preliminary studies; cited from earlier work
[3] = tested on: glutamate-stimulated Ca2+ dynamics; assay: Glutamate-stimulated Ca2+ dynamics after pre-incubation; assay type: cell-based
[4] = tested on: cultured forebrain neurons; assay: Neuroprotection by EEP with or without SPBN in cultured forebrain neurons exposed to Glu, MTT assay; assay type: cell-based, rat; details: SPBN 10 mM where present, Glu 100 μM, 1 h
Protocol: Neuroprotection evident at higher concentrations of the tripeptide is further enhanced by the addition of the nitrone. Percent neuroprotection=100×((viabilitytest−vibilitymean Glu))/(viabilitymean control−viabilitymean Glu)). Neuroprotection was then assessed by conducting the colorimetric MTT assay.

[5] = tested on: spinal cord neurons; assay: Glutamate-induced neurotoxicity, colorimetric MTT assay, cultured spinal cord neurons; assay type: cell-based, rat; details: 100 μM glutamate 30 min
Protocol: (§1) Primary cultures of neurons derived from the forebrains and spinal cords of E15 fetuses were prepared and maintained in culture for eight days. […] Extending these observations, we compared the neuroprotective efficacy of EEP and TRH.

[6] = cited from earlier work; for plasma levels of thyroid hormone: in vivo
[7] = tested on: serum enzyme thyroliberinase; details: cited from earlier work
[8] = compared with TRH; cited from earlier work
[9] = rats, intraperitoneal 1.0 mg/kg; cited from earlier work
[10] = molecular target: T1, TRH receptor (Homo sapiens, UniProt P34981); details: reported; cited from earlier work
T1 sequence (P34981 1-398): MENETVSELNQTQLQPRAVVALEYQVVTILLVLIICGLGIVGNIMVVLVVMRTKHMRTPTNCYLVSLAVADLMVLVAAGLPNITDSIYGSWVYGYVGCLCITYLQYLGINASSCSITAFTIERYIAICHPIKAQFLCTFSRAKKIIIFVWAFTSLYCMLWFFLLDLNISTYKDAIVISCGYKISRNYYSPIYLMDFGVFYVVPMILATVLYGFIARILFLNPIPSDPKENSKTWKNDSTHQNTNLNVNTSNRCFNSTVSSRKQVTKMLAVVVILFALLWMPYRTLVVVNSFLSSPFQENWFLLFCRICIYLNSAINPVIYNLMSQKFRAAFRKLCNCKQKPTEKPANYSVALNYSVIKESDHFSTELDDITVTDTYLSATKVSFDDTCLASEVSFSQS

[11] = tested on: immobility in the Porsolt swim test; details: administered to rats; cited from earlier work
[12] = tested on: locomotor activity; details: administered to rats; cited from earlier work
[13] = tested on: forebrain neurons; assay: Glutamate-induced neurotoxicity, colorimetric MTT assay, cultured forebrain neurons; assay type: cell-based, rat
Protocol: as §1

[14] = cited from earlier work
[15] = cited from earlier work; remark: listed apart in the source
[16] = animal studies / rodents; cited from earlier work
[17] = tested on: striatal lesions; details: striatal injections; cited from earlier work

CC(C)(C)[N+]([O-])=Cc1ccc(S(=O)(=O)[O-])cc1S(=O)(=O)[O-].[Na+].[Na+] [NXY-059]
efficacy in temporary and permanent focal ischemia [1]: effective
volume of necrosis [2]: effective in decreasing volume of necrosis

pGLU-GLU-PRO-NH2 [EEP]
effect on glutamate-stimulated Ca2+ dynamics [3]: does not affect
Percent Neuroprotection ([4]; EEP 300 μM): 13.321 ± 7.319%
Percent Neuroprotection ([4]; EEP 1000 μM): 35.784 ± 15.431%
reduction of Glu-induced toxicity ([5]; 500 μM EEP, n=7): 20±2.0%
neuroprotection (reduction of Glu-induced toxicity) ([5]; 1 mM EEP, n=8): 38.9±4.9%
efficacy as a releaser of thyroid stimulating hormone or triiodothyronine ([6]; compared to thyrotropin releasing hormone): minimal efficacy
plasma levels of thyroid hormone [6]: does not elivate
hydrolysis by serum enzyme thyroliberinase [7]: not hydrolyzed
stability in follicular fluid [8]: more stable than TRH
increase of EEP level in amygdala [9]: 7 fold
increase of EEP level in cortex [9]: 14 fold
increase of EEP level in the eye [9]: Over one hundred
increase of EEP level in the hypothalamus [9]: 2 fold
increase of EEP level in the medulla [9]: 4 fold
increase of EEP level in the pituitary [9]: 11 fold
affinity for the TRH receptor [10]: low affinity
immobility in the Porsolt swim test [11]: decreases
locomotor activity [12]: increases
reduction of Glu-induced toxicity ([13]; 500 μM EEP, 100 μM glutamate 30 min, n=7): 29.8±5.6%
neuroprotection (reduction of Glu-induced toxicity) ([13]; 1 mM EEP, 100 μM glutamate 30 min, n=7): 54.1±5.3%
neuroprotective efficacy / potency relative to TRH ([13]; EEP compared with TRH, neuron type not stated): over three times as effective as TRH; also recorded: three times the neuroprotective potency of TRH
degradation in human serum ([14]; human serum): not degraded at all

CC(C)(C)[N+]([O-])=Cc1ccccc1S(=O)(=O)O [SPBN, N-tert-Butyl-α-(2-sulfophenyl)nitrone]
solubility in aqueous solutions [15]: soluble
toxicity [16]: without significant toxicity; also recorded: Toxicity has not been a problem
volume of lesions induced by NMDA, kainic acid, AMPA, MPP+, 3-acetyl pyridine and malonate [17]: decreasing the volume of the lesions

CC(C)(C)[N+]([O-])=Cc1ccccc1 [PBN, α-Phenyl-N-tert-butylnitrone]
toxicity [16]: significant toxicity at high doses; also recorded: toxic in rodents at high doses

NC(=O)[C@@H]1CCCN1C(=O)[C@H](Cc1cnc[nH]1)NC(=O)[C@@H]1CCC(=O)N1 [TRH, pyroglutamate-histidine-proline-amide, reference compound]
effect on glutamate-stimulated Ca2+ dynamics [3]: clearly does
plasma levels of thyroid hormone [6]: elevates
hydrolysis by serum enzyme thyroliberinase [7]: hydrolyzed
effect on glutamate-mediated neurotoxicity [13]: relatively little effect
hydrolysis by pyroglutamylpeptidase II found in blood ([14]; injected, blood): rapidly hydrolyzed
